In ChEMBL document CHEMBL4819020, “Discovery of [1,2,4]triazolo[1,5-a]pyrimidines derivatives as potential anticancer agents” (Eur J Med Chem, 2021) one finds IC50 data, which are given here for 37 compounds.

In one test the test system is MGC-803. The experiment in a line: Antiproliferative activity against human MGC-803 cells assessed as inhibition of cell proliferation measured after 72 hrs by MTT assay. Format: functional, cell-based. To be noted: MGC-803, 72 h.
In another test the test system is MCF7. In words: Antiproliferative activity against human MCF7 cells assessed as inhibition of cell proliferation measured after 72 hrs by MTT assay. Type of test: functional, cell-based. To be noted: MCF7, 72 h.
The next test concerns PC-9. In words: Antiproliferative activity against human PC-9 cells assessed as inhibition of cell proliferation measured after 72 hrs by MTT assay. Type of test: functional, cell-based. To be noted: PC-9, 72 h.
A further test relates to GES1. The experiment in a line: Antiproliferative activity against human GES1 cells assessed as inhibition of cell proliferation measured after 72 hrs by MTT assay. The following applies: GES1, 72 h. Type of test: cell-based.

A value given as a limit tells only on which side of the number the result lay.

On to `Cc1nc2nc(SCc3ccc(Cl)cc3)nn2c(Nc2cc(-c3ccccc3)[nH]n2)c1C`, for which the IC50 was 9.05 µM in the test on MGC-803, 10.6 µM in the test on MCF7, above 50 µM with PC-9 and 47.2 µM with GES1.
In the same order, the values of `Cc1cc(Nc2cc(-c3ccccc3)[nH]n2)n2nc(SCc3ccccc3Br)nc2n1` are 3.65 µM, 3.02 µM, 5.63 µM and 41.1 µM.
With `COc1ccc(Cn2ccc(Nc3cc(C)nc4nc(SCc5ccc(Br)cc5)nn34)n2)cc1`, the IC50 is 12.6 µM with MGC-803, 14.6 µM with MCF7, above 50 µM in the test on PC-9 and above 50 µM in the test with GES1.
Turning to `Cc1cc(Nc2cc(-c3ccc(F)cc3)[nH]n2)n2nc(SCc3ccc(Br)cc3)nc2n1`, the IC50 turned out to be 2.21 µM with MGC-803, 4.57 µM in the test with MCF7, 6.21 µM in the test with PC-9 and 34.1 µM in the test with GES1.
For the compound `Cc1cc(Nc2ccn(Cc3cccc4ccccc34)n2)n2nc(SCc3ccc(Br)cc3)nc2n1`, the IC50 in the test on MGC-803 came to 3.24 µM; in the test on MCF7, 4.31 µM; in the test on PC-9, 5.66 µM; in the test on GES1 it was 30 µM.
As for `Cc1cc(Nc2ccn(Cc3ccc(C(F)(F)F)cc3)n2)n2nc(SCc3ccc(Br)cc3)nc2n1`, the IC50 worked out at 2.59 µM in the test on MGC-803, 2.28 µM with MCF7, 5.58 µM in the test on PC-9 and 30.2 µM in the test on GES1.
On to `Cc1cc(Nc2ccn(Cc3csc4ccc(Cl)cc34)n2)n2nc(SCc3ccc(Br)cc3)nc2n1`, for which the IC50 turned out to be 1.57 µM with MGC-803, 2.57 µM in the test with MCF7, 4.35 µM in the test with PC-9 and 31.4 µM in the test on GES1.
Turning to `Cc1ccc(CSc2nc3nc(C)cc(Nc4cc(-c5ccccc5)[nH]n4)n3n2)cc1`, the IC50 in the test on MGC-803 turned out to be 6.96 µM; in the test on MCF7, 7.29 µM; in the test with PC-9, 7.31 µM; in the test on GES1, 36.2 µM.
Regarding `Cc1cc(Nc2cc(-c3ccccc3)[nH]n2)n2nc(SCC3CC3)nc2n1`, the IC50 with MGC-803 was 16.1 µM; with MCF7, above 50 µM; in the test with PC-9, above 50 µM; with GES1, above 50 µM.
For the compound `C=CCSc1nc2nc(C)cc(Nc3cc(-c4ccccc4)[nH]n3)n2n1`, the IC50 in the test with MGC-803 was 17.2 µM; in the test with MCF7, above 50 µM; in the test on PC-9, above 50 µM; in the test with GES1, above 50 µM.
Turning to `Cc1cc(Nc2cc(-c3ccccc3)[nH]n2)n2nc(SCc3ccc(Cl)cc3)nc2n1`, the IC50 was found to be 3.95 µM with MGC-803, 8.26 µM with MCF7, 6.71 µM with PC-9 and 31.8 µM in the test with GES1.
For the compound `Cc1cc(Nc2cc(-c3ccccc3)[nH]n2)n2nc(SCc3cc(=O)oc4c3ccc3ccccc34)nc2n1`, the half-maximal inhibitory concentration (IC50) in the test with MGC-803 came out at 2.07 µM; in the test with MCF7 it was 4.28 µM; with PC-9, 3.41 µM; with GES1, 28.6 µM.
Take `Cc1cc(Nc2cc(-c3ccccc3)[nH]n2)n2nc(SCCc3ccccc3)nc2n1`: the IC50 worked out at 5.62 µM in the test with MGC-803, 2.7 µM with MCF7, 4.93 µM with PC-9 and 37.4 µM in the test on GES1.
For the compound `Cc1cc(Nc2ccn(Cc3ccccc3)n2)n2nc(SCc3ccc(Br)cc3)nc2n1`, the IC50 is 4.72 µM with MGC-803, 15.8 µM in the test with MCF7, above 50 µM in the test with PC-9 and 44.4 µM in the test with GES1.
`Cc1cc(Nc2cc(-c3ccccc3)[nH]n2)n2nc(SCCCc3ccccc3)nc2n1`: the IC50 in the test on MGC-803 amounted to 6.51 µM; with MCF7 it was 3.9 µM; with PC-9, 5.03 µM; in the test on GES1 it was 40.2 µM.
As for `Cc1cc(Nc2cc(-c3ccccc3)[nH]n2)n2nc(SCc3cccc(Br)c3)nc2n1`, the IC50 with MGC-803 is 4.82 µM; with MCF7 it was 5.14 µM; in the test with PC-9, 8.9 µM; with GES1, above 50 µM.
The corresponding values for `Cc1cc(Nc2cc(-c3ccccc3)[nH]n2)n2nc(SCc3ccc(F)cc3)nc2n1` are 3.27 µM, 4.02 µM, 8.11 µM and 35.5 µM.
In the case of `CCCSc1nc2nc(C)cc(Nc3cc(-c4ccccc4)[nH]n3)n2n1`, the IC50 is 12.6 µM with MGC-803, above 50 µM in the test with MCF7, above 50 µM in the test with PC-9 and above 50 µM in the test on GES1.
For `Cc1cc(Nc2cc(-c3ccccc3)[nH]n2)n2nc(SCc3csc4ccccc34)nc2n1`, the 50% inhibitory concentration (IC50) in the test on MGC-803 is 2.28 µM; in the test on MCF7, 3.47 µM; in the test with PC-9, 4.42 µM; in the test on GES1 it was 29.2 µM.
For the compound `Cc1cc(Nc2cc(-c3ccccc3)[nH]n2)n2nc(SCC3CCCCC3)nc2n1`, the IC50 in the test with MGC-803 is 12.6 µM; with MCF7, above 50 µM; in the test on PC-9, above 50 µM; in the test on GES1 it was above 50 µM.
As for `Cc1cc(Nc2cc(-c3ccccc3)[nH]n2)n2nc(SCc3cccc4ccccc34)nc2n1`, the concentration for half-maximal inhibition (IC50) was found to be 3.12 µM with MGC-803, 7.56 µM with MCF7, 3.95 µM in the test with PC-9 and 36.3 µM in the test with GES1.
For `C#CCSc1nc2nc(C)cc(Nc3cc(-c4ccccc4)[nH]n3)n2n1`, the IC50 was 13.4 µM with MGC-803, 21.8 µM in the test with MCF7, above 50 µM in the test with PC-9 and 45.7 µM in the test with GES1.
In the same order, the values of `Cc1cc(Nc2ccn(Cc3ccc(F)cc3)n2)n2nc(SCc3ccc(Br)cc3)nc2n1` are 3.07 µM, 4.28 µM, 19.4 µM and 40.5 µM.
Turning to `O=c1[nH]cc(F)c(=O)[nH]1` [FLUOROURACIL], the IC50 with MCF7 was found to be 5.32 µM; in the test with GES1, 2.45 µM.
With `CCCCCc1c(C)nc2nc(SCc3ccc(Cl)cc3)nn2c1Nc1cc(-c2ccccc2)[nH]n1`, the IC50 with MGC-803 was 7.14 µM; in the test on MCF7, 6.39 µM; in the test with PC-9, above 50 µM; with GES1 it was above 50 µM.
Regarding `Cc1cc(Nc2cc(-c3ccccc3)[nH]n2)n2nc(SCC(=O)c3ccccc3)nc2n1`, the IC50 in the test on MGC-803 came to 2.58 µM; in the test with MCF7 it was 5.24 µM; in the test on PC-9, 4.45 µM; in the test on GES1 it was 33.3 µM.
Take `Cc1cc(Nc2cc(-c3ccccc3)[nH]n2)n2nc(SCc3ccc(C(F)(F)F)cc3)nc2n1`: the IC50 in the test with MGC-803 was found to be 3.52 µM; with MCF7, 4.82 µM; in the test on PC-9, 4.24 µM; in the test on GES1, 42.7 µM.
`Cc1cc(Nc2cc(C(C)(C)C)[nH]n2)n2nc(SCc3ccc(Br)cc3)nc2n1`: the half-maximal inhibitory concentration (IC50) is 5.62 µM in the test on MGC-803, 7.29 µM with MCF7, 12.4 µM in the test on PC-9 and above 50 µM with GES1.
On to `Cc1cc(Nc2cc(-c3ccccc3)[nH]n2)n2nc(SCc3c(Cl)cccc3Cl)nc2n1`, for which the IC50 is 5.28 µM with MGC-803, 3.23 µM in the test on MCF7, 5.18 µM in the test on PC-9 and 39.6 µM with GES1.
As for `COc1ccc(CSc2nc3nc(C)cc(Nc4cc(-c5ccccc5)[nH]n4)n3n2)cc1`, the IC50 with MGC-803 came to 3.17 µM; in the test on MCF7 it was 4.02 µM; in the test with PC-9, 8.11 µM; with GES1 it was 28.2 µM.
Turning to `Cc1cc(Nc2cc(-c3ccccc3)[nH]n2)n2nc(SCc3ccc([N+](=O)[O-])cc3)nc2n1`, the IC50 stood at 4.25 µM with MGC-803, 5.06 µM in the test with MCF7, 7.98 µM with PC-9 and 43.6 µM with GES1.
On to `Cc1cc(Nc2cc(-c3ccccc3)[nH]n2)n2nc(SCc3nc4ccccc4[nH]3)nc2n1`, for which the IC50 was determined as 1.79 µM in the test with MGC-803, 2.73 µM in the test on MCF7, 4.84 µM with PC-9 and 27.8 µM in the test on GES1.
Take `Cc1cc(Nc2cc(-c3ccccc3)[nH]n2)n2nc(SCc3ccc(Br)cc3)nc2n1`: the IC50 in the test on MGC-803 was found to be 1.11 µM; in the test on MCF7, 2.72 µM; with PC-9, 4.76 µM; with GES1, 39.3 µM.
Regarding `Cc1cc(Nc2cc(-c3ccc(Cl)cc3)[nH]n2)n2nc(SCc3ccc(Br)cc3)nc2n1`, the IC50 came to 2.78 µM in the test with MGC-803, 3.62 µM with MCF7, 4.92 µM in the test with PC-9 and 28.2 µM with GES1.
As to `Cc1cc(Nc2cc(-c3ccccc3)[nH]n2)n2ncnc2n1`, the IC50 is 21.7 µM with MGC-803, above 50 µM in the test on MCF7, above 50 µM in the test with PC-9 and above 50 µM in the test with GES1.
On to `Cc1cc(Nc2cc(-c3cccs3)[nH]n2)n2nc(SCc3ccc(Br)cc3)nc2n1`, for which the IC50 worked out at 3.77 µM with MGC-803, 5.37 µM with MCF7, 4.89 µM in the test on PC-9 and 38.7 µM in the test on GES1.
`Cc1ccc(Cn2ccc(Nc3cc(C)nc4nc(SCc5ccc(Br)cc5)nn34)n2)cc1`: the IC50 in the test on MGC-803 is 7.42 µM; in the test with MCF7, 11.3 µM; in the test with PC-9 it was above 50 µM; with GES1, above 50 µM.
